PubChem BioAssay AID1963978 (Molecular Pharmacology Branch, DTP, NCI, 2024)

System: 616215-338-R-J1-PDC spheroids with HUVEC/MSC, viability
Experiment: Anticancer human tumor 616215-338-R-J1-PDC patient-derived colon adenocarcinoma cell line growth inhibition [PI3K]
Conditions: for IC50: curve of first compound; for viability, T/C: stronger effect = lower value
Method in brief: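 Combination activity was assessed by viability in multicellular tumor spheroids carrying HUVEC and MSC components. Agents were tested with PI3K inhibitors from a Cmax-based top dose (or 10 microM) downward in half-log increments.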

[1] = second compound 0.0316 µM, first compound 0.0316 µM
[2] = second compound 0.0316 µM, first compound 0.1 µM
[3] = second compound 0.1 µM, first compound 0.0316 µM
[4] = second compound 0.1 µM, first compound 0.1 µM
[5] = second compound 0.316 µM, first compound 0.0316 µM
[6] = second compound 0.316 µM, first compound 0.1 µM
[7] = second compound 1 µM, first compound 0.0316 µM
[8] = second compound 1 µM, first compound 0.1 µM
[9] = second compound 3.16 µM, first compound 0.0316 µM
[10] = second compound 3.16 µM, first compound 0.1 µM
[11] = second compound 10 µM, first compound 0.0316 µM
[12] = second compound 10 µM, first compound 0.1 µM
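Note: spheroids exposed to agents for seven days before the viability read.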

C[C@@H](NC(=O)c1ncnc(N)c1Cl)c1ncc(C(=O)Nc2cc(C(F)(F)F)c(Cl)cn2)s1 + Cc1nc(NC(=O)N2CCCC2C(N)=O)sc1-c1ccnc(C(C)(C)C(F)(F)F)c1
IC50 (second compound 0.0316 µM): > 10 µM | IC50 (second compound 0.1 µM): > 10 µM | IC50 (second compound 0.316 µM): > 10 µM | IC50 (second compound 1 µM): > 10 µM | IC50 (second compound 3.16 µM): > 10 µM | IC50 (second compound 10 µM): 4.85 µM | viability, T/C [1]: 91.9% | viability, T/C [2]: 101% | viability, T/C (second compound 0.0316 µM, first compound 0.316 µM): 94.3% | viability, T/C (second compound 0.0316 µM, first compound 1 µM): 105% | viability, T/C (second compound 0.0316 µM, first compound 3.16 µM): 112% | viability, T/C (second compound 0.0316 µM, first compound 10 µM): 89.2% | viability, T/C [3]: 111% | viability, T/C [4]: 99.1% | viability, T/C (second compound 0.1 µM, first compound 0.316 µM): 101% | viability, T/C (second compound 0.1 µM, first compound 1 µM): 115% | viability, T/C (second compound 0.1 µM, first compound 3.16 µM): 93.7% | viability, T/C (second compound 0.1 µM, first compound 10 µM): 77.7% | viability, T/C [5]: 107% | viability, T/C [6]: 110% | viability, T/C (second compound 0.316 µM, first compound 0.316 µM): 106% | viability, T/C (second compound 0.316 µM, first compound 1 µM): 119% | viability, T/C (second compound 0.316 µM, first compound 3.16 µM): 109% | viability, T/C (second compound 0.316 µM, first compound 10 µM): 77.2% | viability, T/C [7]: 112% | viability, T/C [8]: 112% | viability, T/C (second compound 1 µM, first compound 0.316 µM): 107% | viability, T/C (second compound 1 µM, first compound 1 µM): 108% | viability, T/C (second compound 1 µM, first compound 3.16 µM): 108% | viability, T/C (second compound 1 µM, first compound 10 µM): 62.3% | viability, T/C [9]: 102% | viability, T/C [10]: 112% | viability, T/C (second compound 3.16 µM, first compound 0.316 µM): 103% | viability, T/C (second compound 3.16 µM, first compound 1 µM): 98.9% | viability, T/C (second compound 3.16 µM, first compound 3.16 µM): 81.1% | viability, T/C (second compound 3.16 µM, first compound 10 µM): 53.1% | viability, T/C [11]: 97.5% | viability, T/C [12]: 107% | viability, T/C (second compound 10 µM, first compound 0.316 µM): 88.9% | viability, T/C (second compound 10 µM, first compound 1 µM): 104% | viability, T/C (second compound 10 µM, first compound 3.16 µM): 68.3% | viability, T/C (second compound 10 µM, first compound 10 µM): 19.2%

Cn1ncnc1[C@H]1c2n[nH]c(=O)c3cc(F)cc(c23)N[C@@H]1c1ccc(F)cc1 + Cc1nc(NC(=O)N2CCCC2C(N)=O)sc1-c1ccnc(C(C)(C)C(F)(F)F)c1
IC50 (second compound 0.0316 µM): > 0.1 µM | IC50 (second compound 0.1 µM): > 0.1 µM | IC50 (second compound 0.316 µM): > 0.1 µM | IC50 (second compound 1 µM): > 0.1 µM | IC50 (second compound 3.16 µM): > 0.1 µM | IC50 (second compound 10 µM): > 0.1 µM | viability, T/C (second compound 0.0316 µM, first compound 0.000316 µM): 95.2% | viability, T/C (second compound 0.0316 µM, first compound 0.001 µM): 88.9% | viability, T/C (second compound 0.0316 µM, first compound 0.00316 µM): 112% | viability, T/C (second compound 0.0316 µM, first compound 0.01 µM): 89.3% | viability, T/C [1]: 109% | viability, T/C [2]: 99.1% | viability, T/C (second compound 0.1 µM, first compound 0.000316 µM): 101% | viability, T/C (second compound 0.1 µM, first compound 0.001 µM): 98.7% | viability, T/C (second compound 0.1 µM, first compound 0.00316 µM): 97.8% | viability, T/C (second compound 0.1 µM, first compound 0.01 µM): 97.2% | viability, T/C [3]: 104% | viability, T/C [4]: 109% | viability, T/C (second compound 0.316 µM, first compound 0.000316 µM): 92% | viability, T/C (second compound 0.316 µM, first compound 0.001 µM): 103% | viability, T/C (second compound 0.316 µM, first compound 0.00316 µM): 89.6% | viability, T/C (second compound 0.316 µM, first compound 0.01 µM): 104% | viability, T/C [5]: 99.9% | viability, T/C [6]: 90% | viability, T/C (second compound 1 µM, first compound 0.000316 µM): 107% | viability, T/C (second compound 1 µM, first compound 0.001 µM): 103% | viability, T/C (second compound 1 µM, first compound 0.00316 µM): 94.5% | viability, T/C (second compound 1 µM, first compound 0.01 µM): 93.4% | viability, T/C [7]: 90.2% | viability, T/C [8]: 93.5% | viability, T/C (second compound 3.16 µM, first compound 0.000316 µM): 103% | viability, T/C (second compound 3.16 µM, first compound 0.001 µM): 94.6% | viability, T/C (second compound 3.16 µM, first compound 0.00316 µM): 98.5% | viability, T/C (second compound 3.16 µM, first compound 0.01 µM): 93% | viability, T/C [9]: 92.5% | viability, T/C [10]: 87.7% | viability, T/C (second compound 10 µM, first compound 0.000316 µM): 107% | viability, T/C (second compound 10 µM, first compound 0.001 µM): 91.3% | viability, T/C (second compound 10 µM, first compound 0.00316 µM): 85.7% | viability, T/C (second compound 10 µM, first compound 0.01 µM): 81.3% | viability, T/C [11]: 81.4% | viability, T/C [12]: 80.4%
